Reference: PMC4893612 (Scientific Reports, 2016)

What was measured:
KMS-11 = experiment: MTT antiproliferative assay, KMS-11; format: cell-based; conditions: Homo sapiens, 72 hours
Description: Cell viability was monitored by the MTT (3-(4,5-dimethylthiazol-2-yl)-2,5-diphenyltetrazolium bromide) assay. For the MTT assay, cells were suspended at 5 × 10^5 cells/ml, and 100 μl aliquots were dispended into 96-well microtiter plates and exposed to drugs as described using DMSO control. At the end of incubations, 10 μl of a stock solution of 5 mg/ml MTT (3-(4,5-dimethylthiazol-2-yl)-2,5-diphenyltetrazolium bromide), was added into each well, and the plates were incubated 4 hours at 37 °C. Formazan crystals were dissolved with 100 μl of 10% SDS/10 mM HCl solution overnight at 37 °C. Since MTT assays are affected by mitochondrial activity, and since OXPHOS is affected by VLX1570 (unpublished observation), we used the acid phosphatase method[49] to determine cell viability in some experiments. After washing twice with PBS, cells were lysed in 100 μl of 0.1 M sodium acetate, 0,1% Triton X-100, p-nitrophenylphosphate (Pierce Biotechnology Inc, Rockford, IL) and incubated for 90 min at 37 °C. At the end of the incubation, 10 μl NaOH was added to each well and A405 was determined.

myeloma cells = experiment: CFSE cell proliferation assay; format: cell-based, human; conditions: 0.25 μM or 0.5 μM; 72 hours
Description: Cell proliferation was measured using the Cell trace^TM CSFE cell proliferation kit. Cells were suspended at 5 × 10^5 cells/ml, incubated with CellTrace^TM reagent for 20 minutes and exposed to the drug at indicated concentrations using DMSO as a control. After 72 h cells were collected, washed twice in 1× PBS, fixed with 3,7% formaldehyde and analysed by flow cytometry.

USP14 = USP14 (Homo sapiens, UniProt P54578); experiment: Cellular thermal shift assay (CETSA) in OPM-2 cells; format: cell-based; parameters: endogenous in cells; host or cells: OPM-2 multiple myeloma cells; conditions: 1 μM, 1 hour
Description: For CETSA, the same amount of cells as one sample was treated with required condition and collected as described. Each sample was suspended in PBS supplemented with protease inhibitors after they were washed in PBS. And then these samples were heated at 51, 53, or 55 °C for 3 min. Immediately after heating, tubes were removed and incubated at room temperature for 3 min, and then snap-frozen in liquid nitrogen. Samples were freeze-thawed twice and centrifuged at 20,000 g for 20 min at +4 °C and supernatants were analysed by Western-blotting.

Chain of USP14 (P54578 whole entry): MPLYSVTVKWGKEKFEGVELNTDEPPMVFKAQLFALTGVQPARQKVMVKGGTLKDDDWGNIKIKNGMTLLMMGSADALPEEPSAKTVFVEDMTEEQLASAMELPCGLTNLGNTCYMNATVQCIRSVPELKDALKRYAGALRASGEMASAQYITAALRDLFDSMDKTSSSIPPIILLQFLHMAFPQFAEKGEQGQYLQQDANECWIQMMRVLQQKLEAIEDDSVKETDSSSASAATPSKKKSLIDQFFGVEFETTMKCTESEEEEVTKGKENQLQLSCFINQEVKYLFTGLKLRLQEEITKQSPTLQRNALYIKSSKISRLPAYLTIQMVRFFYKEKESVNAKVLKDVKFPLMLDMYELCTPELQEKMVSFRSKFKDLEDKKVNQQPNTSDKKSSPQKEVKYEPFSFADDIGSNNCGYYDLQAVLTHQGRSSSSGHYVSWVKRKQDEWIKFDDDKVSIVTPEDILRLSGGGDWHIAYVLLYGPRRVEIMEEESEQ

For `C=CC(=O)N1CC/C(=C\c2ccc(F)c([N+](=O)[O-])c2)C(=O)/C(=C/c2ccc(F)c([N+](=O)[O-])c2)C1` [VLX1570], which IC50 (KMS-11) is on record?
The IC50 was 43 ± 2 nM.

And the “cell cycle arrest (CFSE dilution)” value (myeloma cells)?
Its value is “arrest myeloma cells in the cell cycle”.

What about the “thermostabilization of USP14” value (USP14) of the same compound?
The value was “thermostabilized”.

And the “thermostabilization of USP14” value (USP14; 53°–55 °C)?
Its value is 2.5 fold control.
